Measured values as given in patent US20140336503A1, “RA[…] […] RELATED METHODS THEREOF” (The Regents of the University of Michigan, priority 2013, published 2014).

Key:
osteoclasts in bone = assay: microPET imaging of radioligand uptake into bone in normal rats, with blocking studies; type: in vivo; details: rat
Description: Studies were done using imaging with Concorde Microsystems R4 and P4 PET scanners. Rats were anesthetized with isoflurane and maintained on 1% isoflurane throughout the imaging period. The animals were placed on their dorsal side in the scanner, and body temperature was maintained using a heating pad. A catheter was inserted into the tail vein for administration of radioactive solutions. Following a measured transmission scan, solutions of radioligands ([^11C]1 or ([^11C]2, 37-185 MBq in 0.5-1 mL volumes) were injected via the catheter, followed by a 1 ml flush of saline. For the blocking study, a 2 mg/kg dose of unlabeled compound 2 was administered 10 minutes prior to the injection of the radiolabeled [^11C]2. Emission data was collected for 60 minutes (12×5 min fames). The emission data was corrected for decay, dead time and random coincidences, then reconstructed using iterative ordered subset expectation maximization-maximum a posteriori (OSEM-MAP) yielding a reconstructed image resolution of approximately 1.4 mm. Volumetric regions of interest (ROIs) were defined using hand-drawn circular ROIs placed on the summed images, and the time-activity curves determined for each ROI (ASI Pro VM software: Siemens Medical Systems, Malvern, Pa.).

[1] = whole body biodistribution of radioactivity after intravenous injection in rats; type: in vivo, rat; details: female rats, i.v.; for Tissue biodistribution, Bone, avg: femur in its entirety
Experimental: The whole body biodistribution of radioactivity after intravenous injection of [^11C]1 was determined in rats. Animals (N =6, female CD rats) were lightly anesthetized (isoflurane) and injected via the tail vein with 1.85-4.44 MBq of radioligand formulated in 5% ethanol/saline. At selected times (5 and 40 min), groups (N=3) of animals were anesthetized, euthanized (decapitation) and samples of tissues removed. Tissue samples were weighed, counted for carbon-11, and the data calculated as % injected dose/g.

human cathepsin K = molecular target: T1, human cathepsin K (Homo sapiens, UniProt P43235); details: in vitro; cited from earlier work
T1 sequence (P43235 115-329): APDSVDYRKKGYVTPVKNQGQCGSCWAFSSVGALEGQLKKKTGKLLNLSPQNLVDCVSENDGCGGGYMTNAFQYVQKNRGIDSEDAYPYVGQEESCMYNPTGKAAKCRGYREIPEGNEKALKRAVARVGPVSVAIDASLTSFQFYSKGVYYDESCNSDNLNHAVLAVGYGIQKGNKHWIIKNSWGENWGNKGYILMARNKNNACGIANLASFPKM

Which “uptake and retention into target bone regions with low specific activity dose” value (osteoclasts in bone; 10.8 GBq/μmol, co-injection of 14 micrograms/kg of unlabeled 1) does the source give for `[11CH3]Oc1ccc(CCNC(=O)c2cnc(C#N)nc2NC2CCCCC2)cc1` [[^11C]1, 2-cyano-4-(cyclohexylamino)-N-(4-[^11C]methoxyphenethyl)-pyrimidine-5-carboxamide] here?
The value was “nearly full block”.

And the “uptake and retention after pretreatment with unlabeled CCX” value (osteoclasts in bone; microPET)?
The value was “reduced”.

And the “uptake in the growth plates (proximal humerus, distal ulnar, carpal, distal femur, proximal tibia, caudal vertebrae)” value (osteoclasts in bone; microPET)?
The value was “high uptake”.

What about the “Tissue biodistribution, Adrenal, avg” value ([1]; 5 min) of the same compound?
The value was 3.57 % injected dose/g.

What about the “Tissue biodistribution, Blood, avg” value ([1]; 5 min) of the same compound?
Its value is 0.24 % injected dose/g.

And the “Tissue biodistribution, Brain, avg” value ([1]; 5 min)?
The value was 0.43 % injected dose/g.

What about the “Tissue biodistribution, Heart, avg” value ([1]; 5 min) of the same compound?
Its value is 1.23 % injected dose/g.

What about the “Tissue biodistribution, Kidney, avg” value ([1]; 5 min) of the same compound?
The value was 2.03 % injected dose/g.

And the “Tissue biodistribution, Liver, avg” value ([1]; 5 min)?
Its value is 3.02 % injected dose/g.

What about the “Tissue biodistribution, Lung, avg” value ([1]; 5 min) of the same compound?
The value was 0.68 % injected dose/g.

What about the “Tissue biodistribution, Muscle, avg” value ([1]; 5 min) of the same compound?
The value was 0.11 % injected dose/g.

And the “Tissue biodistribution, Pancreas, avg” value ([1]; 5 min)?
Its value is 1.68 % injected dose/g.

What about the “Tissue biodistribution, Spleen, avg” value ([1]; 5 min) of the same compound?
Its value is 1.03 % injected dose/g.

And the “Tissue biodistribution, Bone, avg” value ([1]; 5 min)?
The value was 0.26 % injected dose/g.

And the “Tissue biodistribution, Adrenal, avg” value ([1]; 40 min)?
The value was 0.51 % injected dose/g.

And the “Tissue biodistribution, Blood, avg” value ([1]; 40 min)?
Its value is 0.11 % injected dose/g.

What about the “Tissue biodistribution, Brain, avg” value ([1]; 40 min) of the same compound?
The value was 0.11 % injected dose/g.

What about the “Tissue biodistribution, Heart, avg” value ([1]; 40 min) of the same compound?
The value was 0.19 % injected dose/g.

And the “Tissue biodistribution, Kidney, avg” value ([1]; 40 min)?
Its value is 0.41 % injected dose/g.

And the “Tissue biodistribution, Liver, avg” value ([1]; 40 min)?
The value was 0.68 % injected dose/g.

What about the “Tissue biodistribution, Lung, avg” value ([1]; 40 min) of the same compound?
The value was 0.16 % injected dose/g.

And the “Tissue biodistribution, Muscle, avg” value ([1]; 40 min)?
Its value is 0.11 % injected dose/g.

And the “Tissue biodistribution, Pancreas, avg” value ([1]; 40 min)?
Its value is 0.56 % injected dose/g.

What about the “Tissue biodistribution, Spleen, avg” value ([1]; 40 min) of the same compound?
Its value is 0.22 % injected dose/g.

And the “Tissue biodistribution, Bone, avg” value ([1]; 40 min)?
The value was 0.14 % injected dose/g.

Which “bone uptake of radioactivity after blocking dose of unlabeled ligand 2” value (osteoclasts in bone; 2 mg/kg unlabeled 2, ten minutes prior to injection) does the source give for `CC(C)(C)CNc1nc(C#N)ncc1C(=O)NCCc1ccc(O[11CH3])cc1` [[^11C]2, 2-cyano-N-(4-[^11C]methoxyphenethyl)-4-(neopentylamino)pyrimidine-5-carboxamide] here?
Its value is “reduction of bone uptake of radioactivity to essentially levels equivalent to background in non-target tissues”.

With `COc1ccc(CCNC(=O)c2cnc(C#N)nc2NC2CCCCC2)cc1` [[^11C]1, 2-cyano-4-(cyclohexylamino)-N-(4-[^11C]methoxyphenethyl)-pyrimidine-5-carboxamide] as the compound, how does the IC50 (human cathepsin K) read?
Its IC50 is 22.2 pM.

For `COc1ccc(CCNC(=O)c2cnc(C#N)nc2NCC(C)(C)C)cc1` [[^11C]2, 2-cyano-N-(4-[^11C]methoxyphenethyl)-4-(neopentylamino)pyrimidine-5-carboxamide], which IC50 (human cathepsin K) is on record?
Its IC50 is 3 pM.
